This is an account of results in US10160762B2, “6-alkyl dihydropyrazolopyrimidinone compounds as PDE2 inhibitors” (Merck Sharp & Dohme Corp., priority 2015, dated 2018).

Like-named read-outs stand apart in the source and are kept apart here.

For data set [1] the following is noted: reported in Brandon et al., Annual Reports in Medicinal Chemistry 42, 2007; cited from earlier work.
In the next data set the test system is other PDE isoforms. The note with it: reported in Brandon et al., Annual Reports in Medicinal Chemistry 42, 2007; cited from earlier work.
In another data set the target is T1, Rhesus PDE2A3 (Macaca mulatta, UniProt B3VTJ2).
T1 construct: made in house; host or cells: AD293 cells, transient transfection; supernatant of sonicated lysate
T1 sequence (B3VTJ2 1-941): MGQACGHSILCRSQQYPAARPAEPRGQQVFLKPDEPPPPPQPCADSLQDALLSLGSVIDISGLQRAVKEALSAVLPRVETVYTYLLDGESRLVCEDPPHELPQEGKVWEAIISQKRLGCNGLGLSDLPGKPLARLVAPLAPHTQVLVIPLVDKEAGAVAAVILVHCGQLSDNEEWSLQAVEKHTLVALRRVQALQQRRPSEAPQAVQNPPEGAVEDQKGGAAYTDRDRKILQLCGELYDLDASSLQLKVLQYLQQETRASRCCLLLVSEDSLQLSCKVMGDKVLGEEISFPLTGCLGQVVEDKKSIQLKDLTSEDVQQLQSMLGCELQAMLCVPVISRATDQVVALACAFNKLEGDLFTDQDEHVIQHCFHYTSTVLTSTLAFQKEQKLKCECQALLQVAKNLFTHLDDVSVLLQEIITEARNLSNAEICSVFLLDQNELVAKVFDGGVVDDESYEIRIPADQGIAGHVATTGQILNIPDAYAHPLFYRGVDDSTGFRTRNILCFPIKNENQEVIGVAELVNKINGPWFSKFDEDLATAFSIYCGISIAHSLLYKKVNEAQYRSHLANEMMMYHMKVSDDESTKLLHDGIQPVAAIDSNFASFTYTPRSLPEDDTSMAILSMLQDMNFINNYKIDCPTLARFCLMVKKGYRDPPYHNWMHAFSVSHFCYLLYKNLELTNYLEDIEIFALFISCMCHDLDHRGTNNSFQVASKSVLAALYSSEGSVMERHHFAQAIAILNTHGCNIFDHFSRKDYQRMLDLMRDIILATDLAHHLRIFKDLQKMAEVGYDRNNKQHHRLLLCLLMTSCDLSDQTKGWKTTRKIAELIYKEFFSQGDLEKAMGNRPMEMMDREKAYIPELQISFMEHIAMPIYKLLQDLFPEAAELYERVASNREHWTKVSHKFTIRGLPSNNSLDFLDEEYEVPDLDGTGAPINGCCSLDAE
Nature of the data set: PDE2 fluorescence polarization (IMAP FP) inhibition assay, rhesus PDE2A3. Type of data set: biochemical, rhesus macaque. On the procedure:
The activity of the compounds in accordance with the present invention as PDE2 inhibitors may be readily determined using a fluorescence polarization (FP) methodology (Huang, W., et al., J. Biomol Screen, 2002, 7: 215).
The PDE2 inhibitory activity of the compounds of the present invention was determined in accordance with the following experimental method. Rhesus PDE2A3 was amplified from rhesus macaque brain cDNA (Biochain Institute, Hayward, Calif.) using primers based on human PDE2A sequence (accession NM_002599.3) where the forward primer containing a Kozak consensus was 5′-[…]-3′ and the reverse primer was 5′-[…]-3′. Amplification with Easy-A High-Fidelity PCR cloning enzyme (Stratagene, La Jolla, Calif.) was 95° C. for 2 minutes followed by thirty three cycles of 95° C. for 40 seconds, 52° C. for 30 seconds, and 72° C. for 2 minutes 48 seconds. Final extension was 72° C. for 7 minutes. The PCR product was TA cloned into pcDNA3.3-TOPO (Invitrogen, Carlsbad, Calif.) according to standard protocol. A consensus sequence was developed from multiple clones and then deposited into GenBank (EU812167). AD293 cells (Stratagene, La Jolla, Calif.) with 70-80% confluency were transiently transfected with rhesus PDE2A3/pcDNA3.3-TOPO using Lipofectamine 2000 according to manufacturer specifications (Invitrogen, Carlsbad, Calif.). Cells were harvested 48 hours post-transfection and lysed by sonication (setting 3, 10×5 sec pulses) in a buffer containing 20 mM HEPES pH 7.4, 1 mM EDTA and Complete Protease Inhibitor Cocktail Tablets (Roche, Indianapolis, Ind.). Lysate was collected by centrifugation at 75,000×g for 20 minutes at 4° C. and supernatant utilized for evaluation of PDE2 activity. The fluorescence polarization assay for cyclic nucleotide phosphodiesterases was performed using an IMAP® FP kit supplied by Molecular Devices, Sunnyvale, Calif. (product #R8139). […] Assays were performed at room temperature in 384-well microtiter plates with an incubation volume of 20.2 μL. Solutions of test compounds were prepared in DMSO and serially diluted with DMSO to yield 8 μL of each of 10 solutions differing by 3-fold in concentration, at 32 serial dilutions per plate. […] 0% of inhibition is determined by using DMSO (1% final concentrations).
A Labcyte Echo 555 (Labcyte, Sunnyvale, Calif.) is used to dispense 200 nL from each well of the titration plate to the 384 well assay plate. Ten microliters of a solution of enzyme (1/2000 final dilution from aliquots; sufficient to produce 20% substrate conversion) was added to the assay plate. Next 10 uL of a separate solution of the substrate FAM-labeled cAMP (50 nM final concentration product # R7506 from Molecular Devices) and the activator cGMP (1 uM final concentration), prepared in the assay buffer (10 mM Tris HCl, pH 7.2, 10 mM MgCl2, 0.05% NaN3 0.01% Tween-20, and 1 mM DTT) was added to the assay plate and shaken to mix. The reaction is allowed to proceed at room temperature for 60 minutes. A binding solution is then made from the kit components, comprised of 80% Solution A, 20% Solution B and binding reagent at a volume of 1/600 the total binding solution. The enzymatic reaction is stopped by addition of 60 μL of the binding solution to each well of the assay plates and the plates are sealed and shaken for 30 seconds. The plate was incubated at room temperature for at least one hour prior to determining the fluorescence polarization (FP). The parallel and perpendicular fluorescence of each well of the plate was measured using a Tecan Genios Pro plate reader (Tecan, Switzerland) or Perkin Elmer EnVision™ plate reader (Waltham, Mass.). Fluorescence polarization (mP) was calculated from the parallel (S) and perpendicular (P) fluorescence of each sample well and the analogous values for the median control well, containing only substrate (So and Po), using the following equation: Polarization(mP)=1000*(S/So−P/Po)/(S/So+P/Po).
(Fluorescence polarisation rises when a labelled molecule tumbles more slowly, as on binding a larger partner.)

Setting [2] is: Lab B, read-out: Rhesus PDE2 Ki (nM) Lab B.
Setting [3] is: Lab A, read-out: Rhesus PDE2 Ki (nM) Lab A.

Turning to `COc1ccc(Cc2nn3c([C@@H](CCCc4ccccc4)[C@@H](C)O)nc(C)c3c(=O)[nH]2)cc1OC` [BAY 60-7550, Bay 60-7550], the brain penetration result in data set [1] is on record as “limited”. In the data set on other PDE isoforms, the “potency at other PDE isoforms” value is “significant potency”.

In general, Ki refers to the equilibrium dissociation constant of an inhibitor or competing ligand from its target. For `Cc1nc2c(c(CO)nn2C(C)c2ccc(S(F)(F)(F)(F)F)cc2)c(=O)[nH]1` (single isomer, unassigned) [Example 76], on Rhesus PDE2A3 (setting [2]), the Ki was 330 nM.

For the molecule `Cc1nc2c(c(CO)nn2C(c2ccc(C(F)(F)F)cc2)C(C)(C)C)c(=O)[nH]1` (single isomer, unassigned) [Example 82, (R)- or (S)-1-(2,2-Dimethyl-1-(4-(trifluoromethyl)phenyl)-propyl)-3-(hydroxymethyl)-6-methyl-1H-pyrazolo[3,4-d]pyrimidin-4(5H)-one], the Ki on Rhesus PDE2A3 (setting [2]) amounted to 289 nM.

As for `Cc1nn(C(C)c2ccc(C(F)(F)F)cc2)c2nc(C3CCOCC3)[nH]c(=O)c12` (stereo not shown) [Example 55, 3-Methyl-6-(tetrahydro-2H-pyran-4-yl)-1-{1-[4-(trifluoromethyl)phenyl]ethyl}-1,5-dihydro-4H-pyrazolo[3,4-d]pyrimidin-4-one], the Ki at Rhesus PDE2A3 (setting [3]) is 421 nM.

For the molecule `CC(c1ccc(C(F)(F)F)cc1)n1nc(COCc2ccccc2)c2c(=O)[nH]c(C(F)F)nc21` (stereo not shown) [Example 283, 3-((Benzyloxy)methyl)-6-(difluoromethyl)-1-(1-(4-(trifluoromethyl)phenyl)ethyl)-1H-pyrazolo[3,4-d]pyrimidin-4(5H)-one], the Ki on Rhesus PDE2A3 (setting [2]) amounted to 387 nM.

On to `Cc1nc2c(c(CC(F)(F)F)nn2C(c2ccc(C(F)(F)F)cc2)C2(C)CC2)c(=O)[nH]1` (single isomer, unassigned) [Example 58, (R)- or (S)-6-Methyl-1-((1-methylcyclopropyl)(4-(trifluoromethyl)phenyl)methyl)-3-(2,2,2-trifluoroethyl)-1H-pyrazolo[3,4-d]pyrimidin-4(5H)-one], for which the inhibition constant Ki on Rhesus PDE2A3 (setting [2]) is 1080 nM.

With `Cc1nc2c(c(C)nn2C(C)C(=O)Nc2ccc(C(F)(F)F)cc2)c(=O)[nH]1` (stereo not shown) [Example 334, 2-(3,6-Dimethyl-4-oxo-4,5-dihydropyrazolo[3,4-d]pyrimidin-1-yl)-N-(4-(trifluoromethyl)phenyl)propanamide], on Rhesus PDE2A3 (setting [3]), the Ki is more than 1000 nM.

Regarding `Cc1nc2c(c(CO)nn2C(c2ccc(C(F)(F)F)c(F)c2)C(C)(C)C)c(=O)[nH]1` (single isomer, unassigned) [Example 128, (R)- or (S)-1-(1-(3-Fluoro-4-(trifluoromethyl)phenyl)-2,2-dimethylpropyl)-3-(hydroxyl-methyl)-6-methyl-1H-pyrazolo-[3,4-d]pyrimidin-4(5H)-one], on Rhesus PDE2A3 (setting [2]), the Ki was 413 nM.

As to `COc1ccc(Cc2nc3c(c(CF)nn3C(C)c3ccc(C(F)(F)F)cc3)c(=O)[nH]2)cc1` (single isomer, unassigned) [Example 218, (R)- or (S)-3-(Fluoromethyl)-6-(4-methoxybenzyl)-1-(1-(4-(trifluoromethyl)phenyl)ethyl)-1H-pyrazolo[3,4-d]pyrimidin-4(5H)-one], the inhibition constant Ki on Rhesus PDE2A3 (setting [2]) stood at 107 nM.
